Results: patent US12508261B2, “Methods of treating depression with vortioxetine” (Rundle Research LLC, priority 2017, dated 2025)
“And” between values parts separate entries of the source, which are not always exact repeats. Equal entries are not always repeated. Where two headings read alike, the source gives them in different places.

How the values were obtained:
[1] = Clinical pharmacokinetic study (RUN-001): vortioxetine 5 mg once daily for 29 days, then 28 days washout, obese vs normal-weight subjects; format: in vivo, human; conditions: for Observed Clss: (5 mg/day)/AUC29; for Predicted CLss: (5 mg/day)/Css; for Observed accumulation ratio: AUC29/AUC1; for Predicted accumulation ratio: from elimination rate constant and 1 day dose interval
Method: To test if the obese patients would require different washout guidelines for preventing serotonin syndrome, 16 obese subjects (BMI≥35) and 13 normal subjects (BMI<25) completed a clinical trial where they were administered daily with low doses (5 mg/day) of vortioxetine for 29 days in a controlled study. All subjects were subsequently tracked for 28 days after discontinuing vortioxetine on day 29. Blood samples were collected and processed according to standard techniques.
The normal-weight control group consisted of healthy male and female volunteers aged 18 to 45 years. Their body mass index (BMI) values fell in the range of […]. […] Normal weight and obese subjects were matched as closely as possible for gender and age.
CYP2D6 genotype status was determined from whole blood samples drawn from each subject. Known alleles of CYP2D6 were tested for, as well as the presence of gene duplications (LabCorp, Inc.). CYP2D6 metabolizer status was categorized as ultra-rapid, extensive, intermediate, or poor. Ultra-rapid and poor metabolizers were not included in the study.
All subjects received vortioxetine, 5 mg once daily in the morning, for 29 days. The first dose was on Day 1, and the last dose was on Day 29. Blood sampling continued for another 28 days after the last dose, through Day 57.
Subjects spent 12 hours in the study unit on Day 1 (first dose of vortioxetine) and Day 29 (last dose of vortioxetine). On those two study days, venous blood samples (7 mL each) were drawn prior to the dose of vortioxetine, and at 1, 2, 4, 6, 8, 10, and 12 hours after dosage.
During the 29-day period of daily vortioxetine administration, subjects returned to the study unit in the morning of the following study days: 2, 3, 5, 8, 10, 12, 15, 17, 19, 22, 24, 26, and 29. At each visit, a single venous blood sample (7 mL) was drawn before the daily dose of vortioxetine. Subjects underwent a brief interview to assess subjective effects and possible adverse events. Subjects were then discharged until the next scheduled visit. They were provided with vortioxetine doses sufficient for daily morning administration until the next visit. No more than 2 consecutive doses of vortioxetine were taken on an outpatient basis.
On Day 29 (the final dose of vortioxetine), subjects spent 12 hours in the study unit as described above. They returned to the study unit for a single blood sample on the mornings of the following Days: 30, 31, 33, 36, 38, 40, 43, 45, 47, 50, 52, 54, and 57.
Plasma concentrations of vortioxetine were determined by liquid chromatography—mass spectrometry using a Shimadzu HPLC system coupled to a Sciex API-4000 mass spectrometer.
The internal standard (vortioxetine-d8) was added to calibration standards, quality control samples, and unknown study samples. All samples were extracted with methyl tert-butyl ether. The organic phase was separated and evaporated to dryness; the reconstituted extract was injected into the HPLC system. The HPLC column was a Unison UK-C18, 50 mm×2 mm, 3 micron particle size. The mobile phase consisted of an organic component (0.1% formic acid in acetonitrile) and an aqueous component (0.1% formic acid and 2 mM ammonium acetate in water). This was delivered in gradient mode at a net flow rate of 0.4 mL/min, with the organic fraction varying from 40% to 96%. m/z monitored were: 299.1/150.1 for vortioxetine, and 307.1/153 for vortioxetine-d8. The limit of quantitation was 0.1 ng/mL. […] All samples from a given study subject were extracted and analyzed at the same time using the same calibration standards.
Based on the clinical trials discussed above, several equations were derived which allow an individual to calculate the washout period (i.e., the time between stopping vortioxetine and initiating treatment with an MAOI). Data points to consisted of pre-dose plasma vortioxetine concentration (C) on each study day (t), both during (Days 1-29) and after (Days 30-57) the period of vortioxetine administration. […]

[2] = TRINTELLIX label; cited from earlier work
[3] = Normal-weight subjects, mean ± SD

- Css ([1]; Normal-weight subjects, 5 mg/day, mean ± SD): 3.75 ± 1.72 ng/mL
- Observed Clss [1, 3]: 903 ± 450 mL/min
- Predicted CLss [1, 3]: 1172 ± 679 mL/min
- Observed accumulation ratio [1, 3]: 4.46 ± 1.10
- Predicted accumulation ratio [1, 3]: 3.72 ± 0.77
- Css ([1]; Obese subjects, 5 mg/day, mean ± SD): 4.23 ± 1.68 ng/mL
- Observed Clss ([1]; Obese subjects, mean ± SD): 809 ± 331 mL/min
- Predicted CLss ([1]; Obese subjects, mean ± SD): 935 ± 362 mL/min
- Observed accumulation ratio ([1]; Obese subjects, mean ± SD): 5.24 ± 1.86
- Predicted accumulation ratio ([1]; Obese subjects, mean ± SD): 5.22 ± 1.75
- half-life ([1]; both sexes, human, plasma, 5 mg/day, Normal-weight subjects, 5 mg/day, mean ± SD, read-out: Washout half-life (converted)): 53 h
- half-life ([1]; both sexes, human, plasma, 5 mg/day, Obese subjects (BMI>=35), 5 mg/day, mean ± SD, read-out: Washout half-life (converted)): 78.2 h
- half-life ([1]; both sexes, human, plasma, 5 mg/day, normal weight patients, read-out: elimination half-life (converted)): 53 h
- concentration at 504 h ([1]; both sexes, human, plasma, 5 mg/day, normal patients (non-obese and/or normal CYP2D6 metabolizers), read-out: vortioxetine remaining in the blood plasma 21 days after stopping): 0.54 ng/mL
- AUC(0-t) ([1]; both sexes, human, plasma, oral, 5 mg/day, Normal-weight subjects, 5 mg/day, mean ± SD, read-out: AUC0-24 Day 1): 24.8 ± 8.1 ng·h/mL
- AUC(0-t) ([1]; both sexes, human, plasma, oral, 5 mg/day, Normal-weight subjects, 5 mg/day, mean ± SD, read-out: AUC0-24 Day 29): 112 ± 48.7 ng·h/mL
- half-life ([1]; both sexes, human, plasma, oral, 5 mg/day, Obese subjects (BMI>=35), 5 mg/day, mean ± SD, read-out: Accumulation half-life (converted)): 79.7 h
- AUC(0-t) ([1]; both sexes, human, plasma, oral, 5 mg/day, Obese subjects, 5 mg/day, mean ± SD, read-out: AUC0-24 Day 1): 22.6 ± 4.2 ng·h/mL
- AUC(0-t) ([1]; both sexes, human, plasma, oral, 5 mg/day, Obese subjects, 5 mg/day, mean ± SD, read-out: AUC0-24 Day 29): 119 ± 46.3 ng·h/mL
- half-life ([1]; both sexes, human, plasma, oral, 5 mg/day, normal subjects, read-out: plasma elimination half-life, range): 30 to 80 h
- half-life ([1]; both sexes, human, plasma, oral, 5 mg/day, obese subjects, read-out: plasma elimination half-life, range): 54 to 171 h
- half-life ([1]; human, plasma, 5 mg/day, one obese subject, CYP2D6 intermediate metabolizer (FIG. 8), read-out: accumulation half-life (converted)): 173 h
- half-life ([1]; human, plasma, 5 mg/day, one obese subject, CYP2D6 intermediate metabolizer (FIG. 8), read-out: washout half-life (converted)): 168 h
- half-life ([1]; human, plasma, im, 5 mg/day, individual subject, Normal cohort (BMI<25), IM, read-out: T1/2 (converted)): 71.8 h
- half-life ([1]; human, plasma, im, 5 mg/day, individual subject, Obese cohort (BMI>=35), IM, read-out: T1/2 (converted)): 171 h
- Css ([1]; individual subject, Normal cohort (BMI<25), IM, 5 mg/day): 7.8 ng/mL
- Css ([1]; individual subject, Obese cohort (BMI>=35), IM, 5 mg/day): 9.27 ng/mL
- washout period needed to attain about 0.14% of the initial plasma concentration ([1]; obese individuals, Equation 2): 31.5 days
- time with measurable drug plasma concentrations after discontinuing vortioxetine ([1]; obese subjects, 5 mg/day): at least 28 days
Structure (SMILES): Cc1ccc(Sc2ccccc2N2CCNCC2)c(C)c1 [vortioxetine]
- Css ([1]; individual subjects, Normal cohort (BMI<25), EM, 5 mg/day): 2.01 ng/mL and 3.31 ng/mL and 3.29 ng/mL and 3.51 ng/mL and 4.06 ng/mL and 3.21 ng/mL and 1.4 ng/mL and 1.54 ng/mL and 5.24 ng/mL and 5.42 ng/mL and 4.14 ng/mL and 3.13 ng/mL
- Css ([1]; individual subjects, Obese cohort (BMI>=35), EM, 5 mg/day): 4.32 ng/mL and 4.58 ng/mL and 2.08 ng/mL and 4.57 ng/mL and 1.97 ng/mL and 3.44 ng/mL and 4.8 ng/mL and 4.75 ng/mL and 4.1 ng/mL and 3.22 ng/mL and 3.39 ng/mL and 3.38 ng/mL and 4.66 ng/mL and 4.85 ng/mL
- time to achieve steady-state plasma concentrations [2]: ≤ 2 weeks
